{
  "source": "patent US12629415B2",
  "about": "“Vaccine adjuvants” (THE PROVOST, FELLOWS, FOUNDATION SCHOLARS, AND THE OTHER …, priority 2018, dated 2026)",
  "key": {"PBMCs or CBMCs [1]": {"system": "PBMCs or CBMCs", "assay": "Quantitative RT-PCR of TNFα, IFNα and CXCL10 mRNA", "type": "cell-based, human", "settings": "CBMCs vs PBMCs", "experimental": "(§1) Poly(I:C) (5 μg/ml) (Invivogen), Poly(dA:dT) (5 μg/ml) (Sigma-Aldrich), 2′3′ cGAMP (10 μg/ml), 5′ triphosphate double stranded RNA (5′ ppp dsRNA) (2.5 μg/ml) and HSV-60 (2 μg/ml) (all from Invivogen) were transfected into PBMCs or CBMCs using TransIT-X2 (Mirus).\nQuantitative RT-PCR—Total RNA from PBMCs or CBMCs was extracted using trizol extraction as previously described (16) and was reverse transcribed using MMLV Reverse Transcriptase (Promega) according to the manufacturer's protocol. This cDNA served as template for amplification of target genes, along with the ‘housekeeping’ gene βActin, by real-time PCR with SensiFast SYBR Green (Bioline) to determine the relative amounts of CXCL10, IFNα and TNFα mRNA. The ABI 7900HT system (Applied Biosystems) was used for real-time PCR, and the cycling threshold method (2^−(ΔΔCt)) was used for relative quantification by comparative method after normalization to βActin expression."}, "PBMCs or CBMCs [2]": {"system": "PBMCs or CBMCs", "assay": "CXCL10 (IP-10) ELISA", "type": "cell-based, human", "settings": "CBMCs compared with PBMCs", "experimental": "as §1\n(§2) Measurement of cytokines—HEK Blue TNFα/IFNα/β Assays were performed as per the manufacturer's (Invivogen) instructions using Quanti-Blue Detection Reagent. SEAP levels were determined using a spectrophotometer plate reader at 630 nm. IFNα (3425-1H-6, Mabtech) and IP-10 (DY266, R&D Systems) were detected by sandwich ELISA. IFNα ELISA used pan specific IFNα antibodies, which allows detection of IFNα subtypes 1/13, 2, 4, 5, 6, 7, 8, 10, 14, 16 and 17. BioLegend LEGENDplex™ Human Inflammation Panel (13-plex) was carried out as per manufacturer's (Biolegend) instructions to determine levels of IFNγ, IL-10, IL-12p70 and IL-23. A BD LSR Fortessa cell analyser was used to acquire samples and BioLegend LEGENDplex™ software was used for analysis."}, "Human PBMCs": {"system": "Human PBMCs", "assay": "IL-1β ELISA on stimulated human PBMCs", "type": "cell-based", "settings": "with or without LPS 100 pg/ml priming; 24 hours", "experimental": "Supernatants were collected after 24 hours and IL-1β was detected by ELISA. Human PBMCs were stimulated for 24 hours with polydA:dT (5 μg/ml, 2 μg/ml or 1 μg/ml) or alum (50 μg/ml) alone or with LPS (100 pg/ml) (C & D). Supernatants were collected and IL-1β was detected by ELISA. Bovine PBMCs were cultured with polydA:dT (1 μg/ml) with or without LPS (100 pg/ml) for 16 hours (E). Cell lysates were harvested and pro-IL-1β was detected by western blot. PBMCs were stimulated with media or polydA:dT (1 μg/ml) for 6 hours. Cells were lysed and RNA was harvested and used for analysis by RT-PCR (F). Results are mean+/− SEM for 6 calves tested individually in triplicate. For human analysis, results are mean+/− SEM for 6 humans tested individually in triplicate The PPIA gene was used for normalization of gene expression."}, "bovine PBMCs": {"system": "bovine PBMCs", "assay": "Bovine IFN-γ ELISA on stimulated PBMCs", "type": "cell-based, cattle", "settings": "72 hours; for IFN-γ secretion by ConA stimulated PBMCs from 2 month old calves: ConA 1 μg/ml, polydA:dT 1 μg/ml; for IFN-γ secretion by ConA stimulated bovine PBMCs: calves <1 year old, ConA 1 μg/ml with or without LPS 100 pg/ml; for IFN-γ secretion by PBMCs from neonatal calves, time course: same 5 calves from 1 to 5 months of age, ConA with or without LPS", "experimental": "Bovine peripheral blood mononuclear cells were isolated from whole blood samples collected in 9m1 vacutainers containing Heparin anticoagulant. PBMCs were spun and separated using leucosep tubes (Cruinn) and a density gradient histopaque 1077 (Sigma-Aldrich) at a speed of 1200 g for 20 minutes. Red blood cell contamination was eliminated using sterile 0.25% sodium chloride (Baxter) as a lysis buffer. The cells were subsequently washed twice in PBS at a speed of 600 g for 10 minutes to remove impurities.\nCells were counted using a haemocytometer, microscope and trypan blue (Sigma Aldrich) and seeded at appropriate densities in tissue culture plates (Cruinn) containing media. The cells were incubated at 37° C. at 5% CO2 treated within hours of plating to avoid unwanted cell death.\nWhen analysing the effects of IL-1β on T cell activation, cells were pre-treated with 250 μg/ml of IL-1 receptor antagonist (IL-1Ra) 40 minutes before stimulation with IL-1β (25 ng/ml). Cells were subsequently stimulated with concanavalin A (1 μg/ml) 1 hour after addition of IL-1β. Similarly, when analysing the effects of polydA:dT on T cell activation, cells were stimulated with polydA:dT (1 μg/ml) 1 hour before ConA treatment (1 μg/ml). LPS (100 pg/ml) primed cells were incubated with YVAD-FMK (10 μm), an inhibitor specific for caspase-1. After 40 minutes, the cells were stimulated with alum (50 μg/ml) for 24 hours and supernatants were then harvested and analysed by ELISA for IL-1β\nCapture antibodies (50 μl/well), diluted in the appropriate buffers, were dispensed into the wells of high binding plates (Greiner Bio-One) and incubated overnight at room temperature or 4° C. For analysis of IL-17, the ELISA plates were pre-coated with capture antibody by the manufacturing before delivery. The wells were washed with PBS/Tween 3 times and the plates were then incubated with 150 μl of blocking buffer for 1 hour at room temperature. The plates were washed again before supernatant (neat or diluted) and recombinant standards were added for 1 hour at room temperature. Following this, the plates were washed and 50 μl of detection antibody was added to the wells for a period of 1 or 2 hours at room temperature. After washing, 50 μl diluted streptavidin-HRP was added to the plate for between 30 minutes and 1 hour. After the final wash, 50 μl of 3,3′-, 5,5′-Tetramethylbenzidine (TMB) substrate was added and the plates were incubated in the dark. The reaction was stopped by addition of 1M sulphuric acid and the absorbance readings were measured at 450 nm using a microtitre plate reader. The cytokine concentrations were calculated using a linear regression standard curve from recombinant cytokines of known concentration. Skanit™ software was used to estimate values."}, "[3]": {"system": "adult PBMCs or neonatal CBMCs", "assay": "HEK-Blue IFNα/β SEAP assay on supernatants of stimulated mononuclear cells", "type": "cell-based, human", "experimental": "Isolation of mononuclear cells and monocytes—Primary PBMCs or CBMCs were isolated from healthy human blood or cord blood. Monocytes were isolated by negative selection using Monocyte Isolation Kit II (Miltenyi). […] Cells were cultured at 37° C., 5% CO2, 95% air in RPMI-1640, with stable 2.5 mM L-glutamine and 0.5 mM sodium pyruvate with 10% FBS (all from Sigma-Aldrich).\nas §1, §2"}},
  "note": "“Also recorded” adds a separate entry of the source.",
  "data": [
    {"substance": "poly(deoxyadenylic-thymidylic) acid [Poly(dA:dT)]", "values": [
      {"measurement": "CXCL10 mRNA expression", "setting": "PBMCs or CBMCs [1]; 4 h", "result": "no inhibition of transcription"},
      {"measurement": "IFNα mRNA expression", "setting": "PBMCs or CBMCs [1]; 24 h", "result": "no inhibition of transcription"},
      {"measurement": "TNFα mRNA expression", "setting": "PBMCs or CBMCs [1]; CNA 4 h, LPS 2 h", "result": "no significant difference in TNFα levels"},
      {"measurement": "CXCL10 protein secretion", "setting": "PBMCs or CBMCs [2]", "result": "no significant difference in the CXCL10 response between PBMCs or CBMCs"},
      {"measurement": "IL-1β secretion by human PBMCs", "setting": "Human PBMCs", "result": "only cells primed with LPS 3 h prior to transfection with polydA:dT secreted processed IL-1β; also recorded: human PBMCS did not secrete processed IL-1β"},
      {"measurement": "IFN-γ secretion by ConA stimulated PBMCs from 2 month old calves", "setting": "bovine PBMCs; listed as PolydA:dT", "result": "drives enhanced IFN-γ secretion in calves aged <1 year old"},
      {"measurement": "IFN-γ secretion by ConA stimulated PBMCs from 2 month old calves", "setting": "bovine PBMCs; listed as poly(dA:dT)", "result": "strongly enhanced IFN-γ production"},
      {"measurement": "IFN-γ secretion by ConA stimulated bovine PBMCs", "setting": "bovine PBMCs", "result": "promotes type 1 interferon dependent enhancement of interferon gamma production in PBMCs"},
      {"measurement": "IFN-γ secretion by ConA stimulated bovine PBMCs", "setting": "bovine PBMCs; listed as Poly (deoxyadenylic-thymidylic) acid", "result": "promotes type 1 interferon dependent enhancement of interferon gamma production in PBMCs"},
      {"measurement": "IFN-γ secretion by ConA stimulated bovine PBMCs", "setting": "bovine PBMCs; listed as poly (dA:dT)", "result": "strongly enhanced IFN-γ production by PBMCs from adult (8 months old) animals"},
      {"measurement": "IFN-γ secretion by ConA stimulated bovine PBMCs", "setting": "bovine PBMCs; listed as polydA:dT", "result": "increase in IFN-γ secretion; also recorded: increased capacity to secrete IFN-γ in response to polydA:dT, although the difference was only significant when cells were primed with LPS"},
      {"measurement": "IFN-γ secretion by PBMCs from neonatal calves, time course", "setting": "bovine PBMCs; listed as PolydA:dT", "result": "drives enhanced IFN-γ by cells from neonatal calves"},
      {"measurement": "IFN-γ secretion by PBMCs from neonatal calves, time course", "setting": "bovine PBMCs; listed as polydA:dT", "result": "overcomes the deficiency in interferon gamma production in neonatal cattle; also recorded: significantly enhanced in response to polydA:dT; also recorded: most evident in the first 2 months of life after which the enhancement was not statistically significant; also recorded: significant increase in IFN-γ secretion at 1 and 2 months in the presence or absence of LPS; also recorded: ability to drive enhanced IFN-γ from PBMCs of calves aged 1-2 months"},
      {"measurement": "innate immune response in neonatal and/or paediatric blood", "setting": "[3]; compared with adult blood, summary statement", "result": "robust innate immune response in neonatal and/or paediatric blood"},
      {"measurement": "type I IFN (IFNα/β) production", "setting": "[3]; neonatal CBMCs compared with adult PBMCs, stimulation 4, 8 or 24 h", "result": "no inhibition of type I IFN production in CBMCs when compared to PBMCs"}
    ]}
  ]
}
